Assay results as given in US20260102340A1, “Therapeutic Formulation” (1000739373 Ontario Ltd., priority 2022, published 2026).

Experiments:
[1] = Visual solubility of formulations packaged in glass bottles; format: physicochemical; details: 100 μg/50 μl in 12% w/w ethanol and HFA 134a, T=5° C. and T=20° C.
[2] = Stability of CBD formulation in HFA 134a (residual); format: physicochemical; details: for Residual (% of 5° C. data): Valve Up
Protocol: The stability of a cannabidiol (CBD) formulation in HFA 134a was evaluated over a 6-month period.
The formulation consisted of 3.57% (w/w) CBD, 15% (w/w) ethanol, and HFA 134a. The formulation was packaged in Presspart™ Plasma 14 mL canisters with metering valves 1908 (Aptar™). The canisters were stored in the valve-up orientation for 6 months at 5° C., 25° C., or 40° C. The residual formulation was measured at 1 month and 6 months.

| SMILES | Visual solubility in glass bottles [1] | Stability of CBD-HFA formulations ([2]; 5° C., 25° C. and 40° C.) | Residual (% of 5° C. data) ([2]; Batch OZ210527/DAL/G1, 1 month (n = 3), 25° C.) | Residual (% of 5° C. data) ([2]; Batch OZ210527/DAL/G1, 1 month (n = 3), 40° C.) | Residual (% of 5° C. data) ([2]; Batch OZ210527/DAL/G1, 3.57% CBD, 15% ethanol, HFA 134a, 1 month (n = 3), 5° C.) | Residual (% of 5° C. data) ([2]; Batch OZ210527/DAL/G1, 6 month (n = 4), 25° C.) | Residual (% of 5° C. data) ([2]; Batch OZ210527/DAL/H1, 1 month (n = 3), 25° C.) | Residual (% of 5° C. data) ([2]; Batch OZ210527/DAL/H1, 1 month (n = 3), 40° C.) | Residual (% of 5° C. data) ([2]; Batch OZ210527/DAL/H1, 3.57% CBD, 15% ethanol, HFA 134a, 1 month (n = 3), 5° C.) | Residual (% of 5° C. data) ([2]; Batch OZ210527/DAL/H1, 6 month (n = 4), 25° C.) |
| --- | --- | --- | --- | --- | --- | --- | --- | --- | --- | --- |
| CCCC1O[C@@H]2C[C@H]3[C@@H]4CCC5=CC(=O)C=C[C@]5(C)[C@H]4[C@@H](O)C[C@]3(C)[C@]2(C(=O)CO)O1 (stereo partly shown) [Budesonide] | confirmed visually | – | – | – | – | – | – | – | – | – |
| C=C(C)[C@@H]1CCC(C)=C[C@H]1c1c(O)cc(CCCCC)cc1O [CBD, cannabidiol] | – | stable | 100.3 % of 5 °C data | 98.5 % of 5 °C data | 100.00 % of 5 °C data | 93.3 % of 5 °C data | 100.2 % of 5 °C data | 98.1 % of 5 °C data | 100.0 % of 5 °C data | 93.5 % of 5 °C data |
